Legend:
[1] = Moisture sorption / hygroscopicity of treprostinil diethanolamine polymorphs; type: physicochemical; settings: for weight gain in humidity chamber: 23 days
Experimental: The initial material synthesized (termed Form A) was characterized using X-ray powder diffraction (XRPD), differential scanning calorimetry (DSC), thermogravimetry (TG), hot stage microscopy, infrared (IR) and Raman spectroscopy, and moisture sorption. The IR and Raman spectra for Form A are shown in FIGS. 16 and 17, respectively. […] The moisture sorption data are shown graphically in FIG. 19. […] In addition, hygroscopicity of treprostinil diethanolamine was evaluated in humidity chambers at approximately 52% RH and 68% RH. […] Upon desorption from 95% down to 5% RH, the sample loses approximately 47%.

[2] = slurry inter-conversion in isopropanol and tetrahydrofuran
Description: Form A is made according to the methods in Table 15. Form B is made from Form A, in accordance with the procedures of Table 16.

[3] = Treprostinil plasma concentrations in rats after a single oral dose of prodrugs (Example 2); type: in vivo, male Sprague-Dawley rats; settings: rat; for Treprostinil AUC compared with dosing the active compound: oral; for adverse reactions following oral administration: single oral dose
Experimental: In this Example, Treprostinil concentrations were determined in male Sprague-Dawley rats following a single oral dose of the following compounds:
A solution of treprostinil methyl ester was prepared by dissolving 2.21 mg of treprostinil methyl ester with 0.85 mL of dimethylacetamide (DMA). […] The final concentration of the dosing vehicle was 0.26 mg/mL of treprostinil methyl ester equivalent to 0.25 mg/mL of Treprostinil.
A solution of treprostinil benzyl ester was prepared by dissolving 2.58 mg of treprostinil benzyl ester with 0.84 mL of dimethylacetamide (DMA). […] The final concentration of the dosing vehicle was 0.268 mg/mL of treprostinil benzyl ester equivalent to 0.25 mg/mL of Treprostinil.
A solution of treprostinil diglycine was prepared by dissolving 1.86 mg of compound with 0.58 mL of dimethylacetamide (DMA). […] The final concentration of the dosing vehicle was 0.323 mg/mL of treprostinil diglycine equivalent to 0.25 mg/mL of Treprostinil.
Groups I-III were dosed on the same day.
Animals were dosed via oral gavage.
Plasma samples were analyzed as described in Example 1. In brief, Treprostinil was extracted from the plasma via liquid-liquid extraction then analyzed by LC/MS/MS. The analytical validation results were reported previously in Example 1. […] Samples were not assayed for unchanged prodrug.

[4] = Clinical Study 01-101: escalating doses of UT-15C oral solution; settings: for mean absolute bioavailability: based on historical intravenous treprostinil sodium data
Experimental: Prior to proceeding directly into clinical studies with a sustained release (SR) solid dosage form of UT-15C (treprostinil diethanolamine), a determination of the pharmacokinetics of an oral “immediate release” solution was performed.
A Safety, Tolerability, and Pharmacokinetic Study of Multiple Escalating Doses of UT-15C (Treprostinil Diethanolamine) Administered as an Oral Solution in Healthy Adult Volunteers (Including Study of Bioavailability).
Study endpoints included standard safety assessments (adverse events, vital signs, laboratory parameters, physical examinations, and electrocardiograms) as well as pharmacokinetic parameters.

[5] = Treprostinil plasma concentrations in rats after a single intraduodenal dose of prodrugs (Example 3); settings: rat; for Tmax (of Treprostinil) / Maximum Treprostinil concentrations: intraduodenal; for Maximum Treprostinil concentrations: 5 minutes post-dosing; for adverse reactions following intraduodenal administration: single intraduodenal dose
Description: This example illustrates a pharmacokinetic study of treprostinil following administration of a single duodenal dose of treprostinil and various prodrugs of the present invention.
In this study, the area under the curve of Treprostinil in male Sprague-Dawley rats following a single intraduodenal dose of treprostinil monophosphate (ring), treprostinil monovaline (ring), treprostinil monoalanine (ring) or treprostinil monoalanine (chain), prodrugs of treprostinil was compared. The compounds were as follows:
This solution was further diluted with 1.50 mL of PEG 400:Polysorbate 80:Water, 40:1:49.
A 50 mg/mL solution of treprostinil monovaline (ring) was prepared in dimethylacetamide (DMA). A 25 μL aliquot of the 50 mg/mL stock solution was then diluted with 175 μL of DMA and 1.8 mL of PEG 400:Polysorbate 80:Water, 40:1:49.
This solution was further diluted with 1.60 mL of PEG 400:polysorbate 80:Water, 40:1:49. The final concentration of the dosing vehicle was 0.590 mg/mL of treprostinil monoalanine (ring) equivalent to 0.5 mg/mL of Treprostinil.
A solution of treprostinil monoalanine (chain) was prepared by dissolving 0.83 mg of treprostinil monoalanine (chain) in 0.14 mL of dimethylacetamide (DMA) until dissolved. This solution was further diluted with 1.26 mL of PEG 400:Polysorbate 80:Water, 40:1:49.
The plasma concentrations of Treprostinil following […] of each prodrug were evaluated in male Sprague-Dawley rats. […] All groups were dosed on day 1 of the study.
Animals were dosed via an indwelling duodenal cannula.
The blood samples were withdrawn and placed into tubes containing 30 μL of a solution of 500 units per mL of heparin in saline, and centrifuged at 13,000 rpm for 10 minutes. Approximately 200 μL of plasma was then removed and dispensed into appropriately labeled polypropylene tubes containing 4 μL of acetic acid in order to stabilize any prodrug remaining in the samples. The plasma samples were frozen at −20° C. and were transported on ice to Absorption Systems Exton Facility. There they were stored in a −80° C. freezer pending analysis.
Plasma samples were analyzed using the methods described above. In brief, Treprostinil was extracted from the plasma via solid phase extraction then analyzed by LC/MS/MS. The lower limit of quantification (LLOQ) of the analytical method was 0.03 ng/mL.
Pharmacokinetic analysis was performed on the plasma concentration of Treprostinil for each individual rat at each time point and on the average plasma concentration for all three rats in the group for each time point.
The following formula was used to determine relative bioavailability (F): Relative F=(AUC(Prodrug Dose)/Dose)/(AUC(Treprostinil Dose)/Dose)*100

[6] = subcutaneous infusion; cited from earlier work

## CCCCC[C@H](O)CC[C@@H]1[C@H]2Cc3cccc(OCC(=O)O)c3C[C@H]2C[C@H]1O.OCCNCCO [Form A]
[1]
  hygroscopicity: hygroscopic
[1]; beginning between 65 to 75% RH
  weight gain during moisture sorption: > 33%
[2]
  thermodynamic stability of the crystal form: metastable

## CCCCC[C@H](O)CC[C@@H]1[C@H]2Cc3cccc(OCC(=O)O)c3C[C@H]2C[C@H]1O.OCCNCCO [Form B]
[1]; 5% RH
  weight loss in moisture sorption: minimal weight loss
[1]; 95% RH
  water absorbed: approximately 49%
[1]; from 95% down to 5% RH
  loss upon desorption: approximately 47%

## CCCCC[C@@H](O)CC[C@@H]1C2Cc3cccc(OCC(=O)OCc4ccccc4)c3CC2C[C@H]1O (some centres unmarked) [Treprostinil benzyl ester, Benzyl Ester of Treprostinil]
[3]
  Treprostinil AUC compared with dosing the active compound: greater than that after dosing of the active compound
  adverse reactions following oral administration: No adverse reactions were observed

## CCCCC[C@H](CC[C@@H]1C2Cc3cccc(OCC(=O)O)c3CC2C[C@H]1OC(=O)CN)OC(=O)CN (some centres unmarked) [Treprostinil diglycine, Bis-Glycyl Ester of Treprostinil]
[3]
  Treprostinil AUC compared with dosing the active compound: greater than that after dosing of the active compound
  adverse reactions following oral administration: No adverse reactions were observed

## CCCCC[C@H](O)CC[C@@H]1[C@H]2Cc3cccc(OCC(=O)OC)c3C[C@H]2C[C@H]1O [Treprostinil methyl ester, Methyl Ester of Treprostinil]
[3]
  Treprostinil AUC compared with dosing the active compound: less than that after dosing the active compound
  adverse reactions following oral administration: No adverse reactions were observed

## CCCCC[C@H](O)CC[C@@H]1[C@H]2Cc3cccc(OCC(=O)O)c3C[C@H]2C[C@H]1O.OCCNCCO [UT-15C, Treprostinil Diethanolamine]
[4]
  Treprostinil plasma concentrations detectable: detectable in all subjects
  changes in hematology, clinical chemistry, urinalysis, vital signs, physical exams, and ECGs: no clinically significant, treatment emergent changes
  most frequently reported adverse events: flushing, headache, and dizziness
[4]; 0.2 mg total dose
  mean absolute bioavailability: 21%
[4]; 0.5 mg total dose
  mean absolute bioavailability: 23%
[4]; 1.0 mg total dose
  mean absolute bioavailability: 24%
[4]; 2.0 mg total dose
  mean absolute bioavailability: 25%
[4]; after the third dose aliquot of the 2.0 mg total dose
  highest (treprostinil plasma) concentration observed: 5.51 ng/mL
[4]; all doses given
  tolerability: well tolerated by the majority of subjects
[4]; each of the four dose aliquots
  AUCinf and Cmax versus dose: increased in a linear fashion with dose
[1]; ~52% RH
  weight gain in humidity chamber: 4.9%
[1]; ~68% RH
  weight gain in humidity chamber: 28%

## CCCCC[C@@H](CC[C@@H]1[C@H]2Cc3cccc(OCC(=O)O)c3C[C@H]2C[C@H]1O)OC(=O)[C@H](C)N [treprostinil monoalanine (chain), 3′-L-Alanyl Ester of Treprostinil]
[5]
  Tmax (of Treprostinil): 5 min
  Maximum Treprostinil concentrations: approximately 9 ng/mL
  adverse reactions following intraduodenal administration: No adverse reactions were observed

## CCCCCC(O)CCC1C(OC(=O)C(C)N)CC2Cc3c(cccc3OCC(=O)O)CC21 [treprostinil monoalanine (ring), 2-L-Alanine Ester of Treprostinil]
[5]
  Tmax (of Treprostinil): 60 min
  adverse reactions following intraduodenal administration: No adverse reactions were observed

## CCCCCC(O)CCC1C(OP(=O)(O)O)CC2Cc3c(cccc3OCC(=O)O)CC21 (centres unmarked) [treprostinil monophosphate (ring), 2-Monophosphate Ester of Treprostinil]
[5]
  Tmax (of Treprostinil): 5 min
  Maximum Treprostinil concentrations: approximately 9 ng/mL
  adverse reactions following intraduodenal administration: No adverse reactions were observed

## CCCCCC(O)CCC1C(OC(=O)C(N)C(C)C)CC2Cc3c(cccc3OCC(=O)O)CC21 [treprostinil monovaline (ring), 2-L-Valine Ester of Treprostinil]
[5]
  Tmax (of Treprostinil): 120 min
  adverse reactions following intraduodenal administration: No adverse reactions were observed

## CCCCC[C@H](O)CC[C@@H]1[C@H]2Cc3cccc(OCC(=O)[O-])c3C[C@H]2C[C@H]1O.[Na+] [treprostinil sodium, (1R,2R,3aS,9aS)-[[2,3,3a,4,9,9a-Hexahydro-2-hydroxy-1-[(3S)-3-hydroxyoctyl]-1H-benz[f]inden-5-yl]oxy]acetic acid monosodium salt]
[6]
  absolute bioavailability: ~100%
